The target in data set [1] is T1, MCL-1/FITC-BID (Homo sapiens, UniProt Q07820).
T1 construct: made in house
The data set is described as follows: Fluorescence anisotropy competition assay, MCL-1/FITC-BID. Type of data set: binding. Particulars: for Displacement of FITC-BID from MCL-1 (in words) / IC50 MCL-1/BID: 150 nM MCL-1, 25 nM FITC-BID; for IC50 MCL-1/BID: Table 2, 21 °C, Tris buffer pH 7.4 + 0.01% Triton-X-100, 20-21 h incubation, triplicate. In general terms: Polarisation of emitted light reports the rotation of a fluorescent probe.

Data set [2] in a line: Circular dichroism spectroscopy and thermal denaturation. In kind it is physicochemical. Particulars: for TM (midpoint of thermal denaturation): MRE222 monitored 5 to 90 °C at 40 °C h^–1, PBS pH 7.4, 50 μM of each peptide; for % helicity: from MRE222, 20 °C, calculation per ref 68. From the text: (A & B) CC-Di (pale green), CC-Di_S (lime), CC-Di_E1 (green), CC-Di_E2 (olive). (C & D) CC-Di-A (pink), CC-Di-B (cyan), CC-Di-A : CC-Di-B mixture (purple). (E & F) CC-Di-A_S (red), CC-Di-B (cyan), CC-Di-A_S : CC-Di-B mixture (brown). (G & H) CC-Di-A (pink), CC-Di-B_S (blue), CC-Di-A : CC-Di-B_S mixture (indigo). For heteromeric assemblies (i.e. Panels C–H) the theoretical spectra expected should the pairs of peptides not interact are depicted by grey dashes. Conditions: all experiments were performed in phosphate-buffered saline (PBS; pH 7.4) at 50 μM concentration of each peptide. Equilibrium CD spectra were recorded at 20 °C.
CD spectra were collected using a JASCO J810 spectropolarimeter coupled to a Peltier temperature controller. Peptide-containing solutions were freshly prepared in PBS (pH 7.4) with concentrations calculated from UV absorption at 280 nm (ε(Tyr) = […]).[78] Samples were examined at 50 μM concentration for lone peptides and 50 + 50 μM for two peptide heterodimeric examples, in a 1 mm quartz cuvette. […] Thermal denaturation experiments were conducted by ramping temperature from 5 to 90 °C at 40 °C h^–1. Full spectra (260–190 nm, 5 scans) were recorded at 5 °C and 20 °C, while the CD signal at 222 nm was recorded across the full temperature range at 1 °C intervals (1 nm interval, 1 nm bandwidth, 16 s response time).

Data set [3] can be described thus: Sedimentation-equilibrium analytical ultracentrifugation. In kind it is physicochemical. The settings on record: AUC, relative to monomer molecular mass, 20 °C, PBS, 50 μM of each peptide.
Method: Sedimentation equilibrium experiments were prepared in PBS (137 mM NaCl, 2.7 mM KCl, 8.2 mM Na2HPO4 and 1.8 mM KH2PO4) at 50 μM peptide concentration for homomeric assemblies and 50 μM peptide concentration of both peptides for heteromeric assemblies and to 120 μL. The reference channel was loaded with 130 μL of PBS solution. Equilibrium distributions were measured twice per speed, in 4 krpm increments, and with rotor speeds from 40 to 60 krpm. Data were fitted to single ideal species models using Ultrascan II (; http://www.ultrascan.uthscsa.edu). […] 95% confidence limits were obtained by Monte Carlo analysis of the fits. The partial specific volume for each of the peptides and the buffer density were calculated using Ultrascan II.
Beckman Proteomelab XL -I analytical ultracentrifuge u sing an An -60 Ti rotor and 2-channel centrepiec es.
Sedimentation equilibrium experiments were made up in PBS (137 mM NaCl, 2.7 mM KCl, 8.2 mM
Na2HP O4 and 1.8 mM KH2PO4) at 50 µM peptide concentration for homomeric assemblies and 50 µM
peptide concentration of both peptides for heteromeric assemblies and to 120 µL. The referenc e channel
was loaded with 130 µL of PBS solution. Equilibrium distributions were measured twice per speed, in 4
krpm increments, and with rotor speeds from 40 to 60 krpm. Data were fitted to single ideal species models […]
were calculated using Ultrascan II.
The target in data set [4] is T2, BCL-xL/FITC-BID (Homo sapiens, UniProt Q07817, DEL27-82).
T2 construct: made in house
The data set is described as follows: Fluorescence anisotropy competition assay, BCL-xL/FITC-BID. Type of data set: binding. The settings on record: competition titration, 20-21 h incubation.

The test system of data set [5] is hDM2/Flu-p53. In kind it is binding. Particulars: read-out: IC50, inhibition of Flu-p53/hDM2 (positive control).
Setting [6] is: PBS pH 7.4, 50 μM of each peptide.

T1 sequence (Q07820 173-327 limits assumed): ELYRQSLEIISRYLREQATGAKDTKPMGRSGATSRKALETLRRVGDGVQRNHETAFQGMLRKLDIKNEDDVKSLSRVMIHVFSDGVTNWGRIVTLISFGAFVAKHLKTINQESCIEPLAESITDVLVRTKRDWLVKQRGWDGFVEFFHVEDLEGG
T2 sequence (Q07817 with tags, fused parts or gaps DEL27-82 limits assumed, species assumed): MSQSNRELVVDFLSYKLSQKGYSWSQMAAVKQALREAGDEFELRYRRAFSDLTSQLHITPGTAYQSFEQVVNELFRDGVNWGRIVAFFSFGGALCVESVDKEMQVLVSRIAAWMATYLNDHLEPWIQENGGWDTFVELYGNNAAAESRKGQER

As for “Ac-GEILALKQEILRLIGDNVALKQEILNLKQGYG-NH2 [CC-Di_E1]”, the IC50 in data set [1] was 700 ± 50 nM.
For “Ac-G EIAALEQ EIAALEK ENAALEQ EIAALEQ GYG-NH [CC-Di-A, acidic peptide of the obligate heterodimer CC-Di-AB]”, in data set [1], the “Displacement of FITC-BID from MCL-1 (in words)” value (from here on “Displacement of FITC-BID”) is recorded as “does not bind MCL-1” and the “IC50 MCL-1/BID” value is “No response”. Also, in data set [2] (CD at 222 nm, 20 °C, PBS pH 7.4, 50 μM of each peptide), the MRE222 result is on record as “–6577 deg cm^2 dmol res^–1”. In data set [2], the “TM (midpoint of thermal denaturation)” value is “NA (<0) °C”. Further, in data set [2] (setting [6]), the “% helicity” value is 19%.
“Ac-G KIAALKQ KILRLIG DNVALKQ KIAALKQ GYG-NH [CC-Di-B_S, basic peptide with the short motif graft that should partner peptide CC-Di-A]”: in data set [1], the “Displacement of FITC-BID” value is on record as “neither of the free peptides, CC-Di-B or CC-Di-B_S, competed with FITC-BID” and the “IC50 MCL-1/BID” value was “No response”. The “TM (midpoint of thermal denaturation)” value in data set [2] was determined as 27 °C. For the same molecule, the “% helicity” value in data set [2] (setting [6]) is 46%.
Take “Ac-G KIAALKQ KIAALKK KNAALKQ KIAALKQ GYG-NH [CC-Di-B, basic peptide of the obligate heterodimer CC-Di-AB]”: in data set [1], the “Displacement of FITC-BID” value is “neither of the free peptides, CC-Di-B or CC-Di-B_S, competed with FITC-BID” and the “IC50 MCL-1/BID” value is given as “No response”. Moreover, in data set [2], the “TM (midpoint of thermal denaturation)” value stood at 38 °C. Besides, the “% helicity” value in data set [2] (setting [6]) is reported as 71%.
For “Ac-G EIAALKQ EIAALKK ENAALKQ EIAALKQ GYG-NH [CC-Di, de novo designed homodimeric coiled-coil peptide, unmodified scaffold]”, in data set [1], the “Displacement of FITC-BID” value was “did not displace FITC-BID” and the “IC50 MCL-1/BID” value is “No response”. Besides, the “TM (midpoint of thermal denaturation)” value in data set [2] turned out to be 75 °C. Further, the “% helicity” value in data set [2] (setting [6]) is 90%. This molecule registered an Oligomer state in data set [3] of 1.96.
Regarding “Ac-GEIAALKQEILRLIGDNVALKQEIAALKQGYG-NH2 [CC-Di_S]”, the “Inhibition of BCL-xL/FITC-BID (in words)” value in data set [4] was “inconclusive”.
Regarding `COc1ccc(C2=N[C@@H](c3ccc(Cl)cc3)[C@@H](c3ccc(Cl)cc3)N2C(=O)N2CCNC(=O)C2)c(OC(C)C)c1` [Nutlin-3a], in data set [5], the IC50 turned out to be 273 ± 41 nM.

These data come from publication PMC6182421, “De novo coiled-coil peptides as scaffolds for disrupting protein–protein interactions” (Chemical Science, 2018).
